In test [1] the test system is I/H-induced ET-1 release in isolated perfused guinea pig lungs. Put plainly: Isolated Perfused Guinea Pig Lung Method (ischemia/hypoxia, I/H). The conditions noted are these: for elevation in PIP produced by I/H (FIG. 4): subcutaneous. In kind it is in vivo. As for the experimental part: The method is as described by Vemulapalli et al., in J. PharmacoL Exp. Therap., 262, 3 (1992), pp. 1062-1069. Briefly, male Dunkin-Hartley guinea pigs (400-600 g) are anesthetized with pentobarbital 30 mg/kg, ip. The trachea is cannulated to facilitate respiration. The right jugular vein is cannulated to administer saline vehicle or test compound, or compounds are administered orally or subcutaneously. Ten minutes after the administration of saline vehicle or test compound, a thoracotomy is performed and the trachea, lungs and heart are removed intact and placed in warmed Tyrode's buffer (34°-35° C.) of the following composition in mM: NaCl 120, KCl 4.8, MgSO4.7H2 O 1.2, KH2 PO4 1.2, NaHCO3 25, CaCl2.2H2 O […], glucose 11 and BSA 0.5%. The pulmonary artery and trachea are cannulated and the lungs are mounted on a perfusion apparatus. Lungs are perfused at a rate of 3.2 ml/min via the pulmonary artery with oxygenated (95% O 2 and 5% CO2) Tyrode's solution maintained at 34°-35° C. The lungs are mechanically ventilated with room air with a volume of 2.5 ml/stroke and 50 strokes/min. Pulmonary insufflation pressure (PIP) is monitored through a side arm of the perfusion apparatus with a Statham pressure transducer and recorded on a Grass polygraph. Lungs are allowed to stabilize for 15 min. Lung effluents (50 ml) are collected every 15 min into chilled polypropylene centrifuge tubes (Corning) containing 100 μl each of aprotinin (200 kallikrein inhibitory units/ml) and soybean trypsin inhibitor (20N-α-benzoyl-L-arginine ethyl ester units/ml). Ischemia-hypoxia (I/H) is produced by cessation of ventilation and perfusion for 15 min followed by reperfusion and reventilation for 60 min. At the end of the experiment, the lungs are tested for cardiopulmonary reactivity by challenging with 5-hydroxy-tryptamine (0.5 mg) directly into the lungs via a pulmonary artery cannula.
In a separate study, anesthetized guinea pigs are administered saline vehicle or test compound. Ten minutes later, the lungs are removed and mounted on a perfusion apparatus as described above. After an equilibration period of 15 min, BET-1 (30 μg over 15 min) or ET-1 (0.6 μg over 15 min) is infused directly into the perfusion medium and the effects on PIP in vehicle and test compound-treated guinea pig lungs are assessed.
FIGS. 3 to 6 show the results of four compounds of the invention on I/H-induced ET-1 release in isolated perfused guinea pig lungs. The compounds include Compounds A and B, identified above, and: […]

For test [2] the following is noted: S. Bertenshaw, et al, J. Med. Chem., 36(1993); cited from earlier work.
For test [3], the system named is ECE. In words: BET Challenge Method (pressor response to BET-1 in anesthetized rats). The conditions noted are these: BET-1 5 μg/kg.
Description: ECE in vivo activity is determined as described by Vemulapalli et al.,in Life Sciences, 53 (1993), pp. 783-793. Briefly, male Charles River CD rats (Wilmington, Mass.) weighing 250-275 g are anesthetized with Inactin, 100 mg/kg, ip. The trachea is catheterized. The right carotid artery and the right jugular vein are cannulated to record blood pressure (BP) and to infuse drugs, respectively. […] The rectal temperature is kept at 37° C. After an equilibration period of 15-30 min, the rats are infused with saline vehicle (20 μl/min) or test compounds (0.01-0.25 mg/kg/min) throughout the study. Thirty minutes after the start of infusion, the rats are challenged with BET-1 (5 μg/kg) via the venous catheter, and the BP is monitored for another 15 min.

Where a name gives a salt, the structure may show the parent alone. Ends that are not written are not given here.

As for `CC(C)C(CP(=O)(O)C(Cc1ccccc1)NC(=O)C(CCCCN)NS(C)(=O)=O)C(=O)N[C@@H](Cc1c[nH]c2ccccc12)C(=O)O` (stereo partly drawn) [Compound C], the “elevation in PIP produced by I/H (FIG. 5)” value in test [1] (iv, 10 mg/kg) is given as “attenuated”.

Regarding “ET-1: endothelin-1, peptide with potent vasoconstrictive and mitogenic activity (CSCSSLMDKECVYFCHLDIIW; ends and bridges not checked; cysteine pairing not given here; UniProt P05305 53-73, looked up)”, in test [2], the “times more potent than its precursor big-endothelin-1 (BET-1)” value was “approximately 100 times”. In the case of `CS(=O)(=O)N[C@@H](CCCCN)C(=O)N[C@@H](Cc1ccccc1)P(=O)(O)CC1(C(=O)N[C@@H](Cc2c[nH]c3ccccc23)C(=O)[O-])CCCC1.[Li+]` [Example 5, N-[[1-[[hydroxy-[1(R)-[[6-amino-2(S)-[(methylsulfonyl)amino]-1-oxohexyl]-amino]-2-phenylethyl]phosphinyl]methyl]cyclopentyl]carbonyl]-L-tryptophan lithium salt], in test [3] (0.1 mg/kg/min infusion), the “lower blood pressure in response to the BET-1 challenge, compared to vehicle (FIG. 1)” value was about 15 mmHg. Take `CC(C)CC(CP(=O)(O)C(Cc1ccccc1)NC(=O)C(CC(C)C)NC(=O)OCc1ccccc1)C(=O)NC(Cc1c[nH]c2ccccc12)C(=O)O` (stereo not drawn) [Compound D, N-[2-[[hydroxy[2-[1-[4-methyl-1-oxo-2-[[(phenylmethoxy)carbonyl]amino]pentyl]amino]-2-phenylethyl]phosphinyl]methyl]-4-methyl-1-oxopentyl]-tryptophan]: the “ET-1 release following I/H (FIG. 6)” value in test [1] (iv, 10 mg/kg) is recorded as “attenuation”.

Take `CC(C)CC(CP(=O)(O)C(Cc1ccc2ccccc2c1)NC(=O)[C@H](CCCCNC(=O)OCc1ccccc1)NS(C)(=O)=O)C(=O)N[C@@H](Cc1c[nH]c2ccccc12)C(=O)O` (stereo partly drawn) [Compound B, N-[2-[[hydroxy[1-[[2(S)-[(methylsulfonyl)amino]-1-oxo-6-[[phenylmethoxy)-carbonyl]amino]hexyl]amino]-2-(2-naphthalenyl)ethyl]phosphinyl]methyl]-4-methyl-1-oxopentyl]-L-tryptophan disodium salt]: the “elevation in PIP produced by I/H (FIG. 4)” value in test [1] (3 mg/kg, 1 hour) is reported as “attenuated”; in test [1] (10 mg/kg, 6 hours), “attenuated”; in test [1] (30 mg/kg, 6 hours), “attenuated”. The “effect on blood pressure response to BET-1 challenge, compared to vehicle (FIG. 2)” value in test [3] (0.1 mg/kg/min infusion, result in words) is on record as “does not have an effect”. The “lower blood pressure in response to the BET-1 challenge, compared to vehicle (FIG. 2)” value in test [3] (0.3 mg/kg/min infusion) is listed as about 22 mmHg.
